Measured values: ChEMBL document CHEMBL1201862, “PubChem BioAssay data set” (2004)
Activity calls are given as the source filed them.

Molecular target: T1, Corticotropin-releasing factor receptor 2/Corticotropin-releasing factor-binding protein (Homo sapiens, UniProt P24387+Q13324)
T1 sequence (Q13324 whole entry): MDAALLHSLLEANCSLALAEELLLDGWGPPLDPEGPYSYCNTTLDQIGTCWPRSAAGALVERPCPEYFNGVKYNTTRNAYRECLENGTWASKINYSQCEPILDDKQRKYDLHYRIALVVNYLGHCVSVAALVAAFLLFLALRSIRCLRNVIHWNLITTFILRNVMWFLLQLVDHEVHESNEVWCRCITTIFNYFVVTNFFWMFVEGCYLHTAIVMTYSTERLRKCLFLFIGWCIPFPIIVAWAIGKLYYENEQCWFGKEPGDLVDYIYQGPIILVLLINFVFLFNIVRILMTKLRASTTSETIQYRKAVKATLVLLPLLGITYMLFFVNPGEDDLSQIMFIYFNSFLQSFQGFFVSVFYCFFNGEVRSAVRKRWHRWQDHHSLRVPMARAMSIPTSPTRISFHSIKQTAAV
T1 sequence (P24387 whole entry): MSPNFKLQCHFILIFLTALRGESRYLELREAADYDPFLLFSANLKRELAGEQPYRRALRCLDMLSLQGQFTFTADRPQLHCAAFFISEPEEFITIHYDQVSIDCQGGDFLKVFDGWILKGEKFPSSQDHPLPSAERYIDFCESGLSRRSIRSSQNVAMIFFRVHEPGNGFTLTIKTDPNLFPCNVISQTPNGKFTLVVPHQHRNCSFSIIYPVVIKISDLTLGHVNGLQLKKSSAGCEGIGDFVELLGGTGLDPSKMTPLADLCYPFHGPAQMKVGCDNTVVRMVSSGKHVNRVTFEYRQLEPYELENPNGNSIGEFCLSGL
Test: Dose Response confirmation of uHTS hits for small molecule antagonists of the CRF-binding protein and CRF-R2 receptor complex.
Assay type: functional
Details: read-out: IC50_Mean
In the case of `O=C(COc1cccc2c1CCN(Cc1ccc(Br)cc1)C2=O)NCc1ccco1`, the IC50 is reported as > 47.1 µM (inactive).
With `Cc1cc(C)nc(SCc2nnc(SCc3ccc([N+](=O)[O-])cc3)n2Cc2ccco2)n1` the IC50 was > 47.1 µM (inactive).
In the case of `COc1ccc(F)cc1S(=O)(=O)NCC(=O)NCc1cc(=O)n(C)c(=O)n1C`, the IC50 is reported as > 47.1 µM (inactive).
For `N#CCSc1nc2sccc2c(=O)n1-c1ccccc1`, the IC50 was > 47.1 µM (inactive).

Molecular target: T1, Corticotropin-releasing factor receptor 2/Corticotropin-releasing factor-binding protein
Test: activators of CRF receptor 2 with binding protein – uHTS hits, confirmation (AID 602473)
Assay type: functional
Details: read-out: EC50_Mean
In the case of `O=C(COc1cccc2c1CCN(Cc1ccc(Br)cc1)C2=O)NCc1ccco1`, the EC50 is reported as > 53 µM (inactive).
For `Cc1cc(C)nc(SCc2nnc(SCc3ccc([N+](=O)[O-])cc3)n2Cc2ccco2)n1`, the EC50 was > 53 µM (inactive).
With `COc1ccc(F)cc1S(=O)(=O)NCC(=O)NCc1cc(=O)n(C)c(=O)n1C` the EC50 was > 53 µM (inactive).
With `N#CCSc1nc2sccc2c(=O)n1-c1ccccc1` the EC50 was > 53 µM (inactive).

Tested on: not listed separately
Test: HEp-2 cell cytotoxicity, dose response, cytotoxicity control for RSV inhibitor project, HTS (AID 2410)
Assay type: functional
Details: human respiratory syncytial virus
In the case of `Cc1nnc2n(Cc3ccccc3)c(=O)c3c4c(sc3n12)COC(C(C)C)C4` (stereo not drawn), the CC50 is reported as 31.3 µM (active).

Molecular target: Paired box protein Pax-8 (Homo sapiens, UniProt Q06710)
Sequence (Q06710 whole entry): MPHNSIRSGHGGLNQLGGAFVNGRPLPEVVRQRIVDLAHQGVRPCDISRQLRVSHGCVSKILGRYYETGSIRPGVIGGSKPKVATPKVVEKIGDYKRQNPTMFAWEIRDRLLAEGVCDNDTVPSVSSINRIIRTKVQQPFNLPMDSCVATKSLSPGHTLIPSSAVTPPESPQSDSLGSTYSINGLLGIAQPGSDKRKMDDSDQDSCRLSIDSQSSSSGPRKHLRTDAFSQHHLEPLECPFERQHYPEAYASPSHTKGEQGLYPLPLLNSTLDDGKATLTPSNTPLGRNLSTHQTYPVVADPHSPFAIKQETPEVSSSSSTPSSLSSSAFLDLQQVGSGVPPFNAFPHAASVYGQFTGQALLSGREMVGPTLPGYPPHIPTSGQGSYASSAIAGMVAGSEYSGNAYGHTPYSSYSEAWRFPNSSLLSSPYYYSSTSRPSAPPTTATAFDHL
Test: inhibitors of PAX8-driven TPO luciferase reporter, dose response, RMG-I cells, cherry-pick (AID 687027);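 further: luciferase reporter driven by Pax8 target thyroperoxidase promoter measured by SteadyGlo luminescence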
Assay type: functional, cell-based
Details: not given
With `C[C@@H]1CN([C@@H](C)CO)C(=O)c2ccccc2-c2ccccc2CO[C@@H]1CN(C)Cc1ccc2c(c1)OCCN2C` the AC50 was 29.5 µM (active).
With `C[C@H](CO)N1C[C@H](C)[C@@H](CN(C)Cc2ccc(Cl)c(Cl)c2)OCCCC[C@H](C)Oc2ccc(NC(=O)Nc3ccc(C(F)(F)F)cc3)cc2C1=O` the AC50 was 4.17 µM (active).

Tested on: not listed separately
Test: microbe, parasite or virus in culture
Assay type: functional
Details: Mycobacterium tuberculosis
With `CCOC(=O)c1cc(CC)sc1NC(=O)c1cc(OCC)c(OCC)c(OCC)c1` the CC50 was > 40 µM (active).
For `Cc1cc(C=C2C(=O)NC(=S)NC2=O)c(C)n1C1CCCC1`, the CC50 was > 40 µM (active).
For `CC(C)=CCOc1ccc([C@@H]2COc3c(ccc4c3C=CC(C)(C)O4)C2)c(O)c1`, the CC50 was > 40 µM (active).

Molecular target: T2, Rac GTPase-activating protein 1 (Homo sapiens, UniProt Q9H0H5)
T2 sequence (Q9H0H5 whole entry): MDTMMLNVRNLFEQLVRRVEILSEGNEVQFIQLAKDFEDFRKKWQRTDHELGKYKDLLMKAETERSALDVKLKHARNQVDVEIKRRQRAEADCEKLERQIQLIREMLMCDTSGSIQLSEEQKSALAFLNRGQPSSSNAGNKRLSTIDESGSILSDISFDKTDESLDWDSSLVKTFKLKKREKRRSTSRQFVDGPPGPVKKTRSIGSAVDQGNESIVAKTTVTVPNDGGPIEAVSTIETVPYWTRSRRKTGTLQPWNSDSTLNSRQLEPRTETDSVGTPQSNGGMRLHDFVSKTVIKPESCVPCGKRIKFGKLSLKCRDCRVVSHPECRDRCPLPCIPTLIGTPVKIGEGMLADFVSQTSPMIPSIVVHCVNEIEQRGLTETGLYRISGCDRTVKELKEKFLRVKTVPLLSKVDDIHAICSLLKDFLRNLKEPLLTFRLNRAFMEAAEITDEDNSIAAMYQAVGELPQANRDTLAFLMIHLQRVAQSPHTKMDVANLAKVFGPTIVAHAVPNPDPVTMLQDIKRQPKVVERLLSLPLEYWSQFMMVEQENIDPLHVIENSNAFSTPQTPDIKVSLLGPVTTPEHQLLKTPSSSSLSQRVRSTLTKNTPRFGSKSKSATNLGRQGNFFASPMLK
Test: MgcRacGAP GTPase-activating activity inhibitors, confirmation, biochemical, ADP Hunter fluorescence, primary and confirmatory (AID 624330)
Assay type: functional
Details: not given
In the case of `O=C(COc1ccccc1)N1CCN(C2CCCC2)CC1`, the IC50 is reported as 127 µM (active).
In the case of `CCCC(=O)NC(=S)Nc1cccc2c(O)cccc12`, the IC50 is reported as 47.7 µM (active).
In the case of `OCCN1CCN(Cc2ccc3ccccc3c2)CC1`, the IC50 is reported as 95.6 µM (active).
With `COc1cc(-c2nc3cnccn3c2Nc2ccc(C)cc2)ccc1O` the IC50 was 29.3 µM (active).
With `CCOc1ccc(N)cc1OC` the IC50 was 42.9 µM (active).
With `COC(=O)c1cc(NCc2ccccc2F)ccc1N1CCOCC1` the IC50 was 168 µM (active).

Molecular target: Cytochrome P450 2C19 (Homo sapiens, UniProt P33261)
Sequence (P33261 whole entry): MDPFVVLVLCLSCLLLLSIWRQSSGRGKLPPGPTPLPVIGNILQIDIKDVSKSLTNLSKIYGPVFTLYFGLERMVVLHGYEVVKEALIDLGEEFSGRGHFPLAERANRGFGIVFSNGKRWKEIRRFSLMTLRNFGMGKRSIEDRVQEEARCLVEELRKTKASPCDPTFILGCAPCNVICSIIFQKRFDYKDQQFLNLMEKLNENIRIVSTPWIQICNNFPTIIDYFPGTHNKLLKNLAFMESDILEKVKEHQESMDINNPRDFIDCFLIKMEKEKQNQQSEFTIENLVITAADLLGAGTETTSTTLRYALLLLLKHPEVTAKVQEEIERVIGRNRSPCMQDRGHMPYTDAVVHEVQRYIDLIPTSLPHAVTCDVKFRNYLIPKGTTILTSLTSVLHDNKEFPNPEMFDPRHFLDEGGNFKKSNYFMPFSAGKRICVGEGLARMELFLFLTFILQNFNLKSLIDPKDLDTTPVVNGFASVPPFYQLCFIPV
Test: Cytochrome panel assay with activity outcomes. Panel member name: p450-cyp2c19 Compounds with AC50 equal or less than 10 uM are considered active
Assay type: functional
Details: read-out: AC50
With `CCOC(=O)c1cc(CC)sc1NC(=O)c1cc(OCC)c(OCC)c(OCC)c1` the AC50 was 25.1 µM (inconclusive).

Tested on: Streptococcus sp. 'group A'
Test: growth inhibition of control SK(-) GAS strain, dose response, counter-screen for streptokinase expression inhibitor project, luminescence, kanamycin, BacTiterGlo, confirmation (AID 1900)
Assay type: functional, organism-based
Details: not given
For `CC(C)=CCOc1ccc([C@@H]2COc3c(ccc4c3C=CC(C)(C)O4)C2)c(O)c1`, the EC50 was 2.28 µM (active).

Molecular target: Cytochrome P450 2C9 (Homo sapiens, UniProt P11712)
Sequence (P11712 whole entry): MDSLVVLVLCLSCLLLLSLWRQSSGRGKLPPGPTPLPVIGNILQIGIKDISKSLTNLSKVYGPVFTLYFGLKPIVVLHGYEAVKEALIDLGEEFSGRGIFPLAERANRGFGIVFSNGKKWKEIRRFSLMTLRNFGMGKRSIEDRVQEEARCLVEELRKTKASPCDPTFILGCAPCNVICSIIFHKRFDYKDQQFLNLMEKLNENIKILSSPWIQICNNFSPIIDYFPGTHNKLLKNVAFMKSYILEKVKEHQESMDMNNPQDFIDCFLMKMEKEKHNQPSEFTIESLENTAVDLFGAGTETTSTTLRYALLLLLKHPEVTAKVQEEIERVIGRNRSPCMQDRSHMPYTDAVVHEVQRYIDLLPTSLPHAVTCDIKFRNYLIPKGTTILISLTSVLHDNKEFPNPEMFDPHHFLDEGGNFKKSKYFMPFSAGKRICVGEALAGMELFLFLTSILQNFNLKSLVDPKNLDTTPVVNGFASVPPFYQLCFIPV
Test: not given
Details: not given
In the case of `CCOC(=O)c1cc(CC)sc1NC(=O)c1cc(OCC)c(OCC)c(OCC)c1`, the AC50 is reported as 20 µM (inconclusive).

Tested on: not listed separately
Test: Luminescence Cell-Based Dose Retest to Confirm Inhibitors of Cancer Stem Cells. [Related pubchem assays (depositor defined):AID2717, AID2721]
Assay type: functional
Details: Homo sapiens
For `CC(C)=CCOc1ccc([C@@H]2COc3c(ccc4c3C=CC(C)(C)O4)C2)c(O)c1`, the AC50 was 3.44 µM (active).

Tested on: not listed separately
Test: Luminescence Cell-Based Dose Confirmation HTS to Identify Inhibitors of Platelet Dense Granule Release. [Related pubchem assays: 1663 (Primary HTS), 1678 (Summary of Project)]
Assay type: functional
Details: not given
For `Nc1ccc(-c2nc3ccccc3o2)cc1`, the EC50 was > 112 µM (not active).
In the case of `O=S(=O)(c1cccc(-c2nnc(SC(F)F)n2-c2ccccc2)c1)N1CCCCC1`, the EC50 is reported as > 112 µM (not active).
For `Cc1nnc2n(Cc3ccccc3)c(=O)c3c4c(sc3n12)COC(C(C)C)C4` (stereo not drawn), the EC50 was > 112 µM (not active).

Molecular target: Luciferin 4-monooxygenase (Photinus pyralis, UniProt P08659)
Sequence (P08659 whole entry): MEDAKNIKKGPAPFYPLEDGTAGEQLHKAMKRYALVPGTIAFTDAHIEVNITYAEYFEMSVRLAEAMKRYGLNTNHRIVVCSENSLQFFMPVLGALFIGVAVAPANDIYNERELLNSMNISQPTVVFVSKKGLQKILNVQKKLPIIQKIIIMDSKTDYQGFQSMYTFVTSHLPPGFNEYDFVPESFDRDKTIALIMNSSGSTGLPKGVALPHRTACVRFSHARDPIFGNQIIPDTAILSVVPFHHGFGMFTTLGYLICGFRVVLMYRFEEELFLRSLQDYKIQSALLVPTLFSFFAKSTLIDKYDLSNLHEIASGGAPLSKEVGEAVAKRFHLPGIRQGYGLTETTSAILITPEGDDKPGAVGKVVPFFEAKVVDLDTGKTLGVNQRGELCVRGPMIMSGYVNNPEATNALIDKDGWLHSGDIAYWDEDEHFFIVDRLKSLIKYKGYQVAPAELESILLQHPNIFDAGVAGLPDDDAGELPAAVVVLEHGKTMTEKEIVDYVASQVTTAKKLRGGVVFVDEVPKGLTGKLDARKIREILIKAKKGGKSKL
Test: firefly luciferase enzyme inhibitors, dose response, biochemical, luminescence (AID 1891)
Details: not given
For `Nc1ccc(-c2nc3ccccc3o2)cc1`, the EC50 was 51.5 µM (active).
With `O=S(=O)(c1cccc(-c2nnc(SC(F)F)n2-c2ccccc2)c1)N1CCCCC1` the EC50 was > 112 µM (not active).
With `Cc1nnc2n(Cc3ccccc3)c(=O)c3c4c(sc3n12)COC(C(C)C)C4` (stereo not drawn) the EC50 was > 112 µM (not active).

Molecular target: T3, Streptokinase A (Streptococcus pyogenes serotype M1, UniProt P10520)
T3 sequence (P10520 whole entry): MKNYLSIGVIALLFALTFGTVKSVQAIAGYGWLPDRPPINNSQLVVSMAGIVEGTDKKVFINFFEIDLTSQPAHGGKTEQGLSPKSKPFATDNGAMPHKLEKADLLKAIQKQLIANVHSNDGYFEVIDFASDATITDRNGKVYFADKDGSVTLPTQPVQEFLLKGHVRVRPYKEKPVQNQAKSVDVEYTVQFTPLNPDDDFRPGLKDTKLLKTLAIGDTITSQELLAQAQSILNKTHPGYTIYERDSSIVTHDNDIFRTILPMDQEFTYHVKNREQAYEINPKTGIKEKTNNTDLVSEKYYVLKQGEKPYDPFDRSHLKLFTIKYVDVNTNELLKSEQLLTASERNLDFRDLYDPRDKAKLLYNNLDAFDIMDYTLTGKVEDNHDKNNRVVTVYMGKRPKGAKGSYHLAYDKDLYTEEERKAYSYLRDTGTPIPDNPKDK
Test: S. pyogenes streptokinase expression inhibitors, potency, dose response, plasminogen activation absorbance, OD405 (AID 1914);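 further: secreted streptokinase activity via plasminogen activation per viability signal from cell pellet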
Assay type: functional, Streptococcus pyogenes M1 GAS
Details: not given
In the case of `CC(C)=CCOc1ccc([C@@H]2COc3c(ccc4c3C=CC(C)(C)O4)C2)c(O)c1`, the EC50 is reported as > 150 µM (not active).

Tested on: not listed separately
Test: cells
Assay type: functional
Details: not given
In the case of `Cc1cc(C=C2C(=O)NC(=S)NC2=O)c(C)n1C1CCCC1`, the IC50 is reported as 10.4 µM (active).

Tested on: Streptococcus
Test: Group A Streptococcus viability loss, dose response, counter-screen for streptokinase expression inhibitor project, luminescence, BacTiterGlo (AID 1915);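 further: potency for reduction of bacterial viability or growth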
Assay type: functional, organism-based
Details: not given
With `CC(C)=CCOc1ccc([C@@H]2COc3c(ccc4c3C=CC(C)(C)O4)C2)c(O)c1` the EC50 was 2.25 µM (active).
